Patent US5981497A, “Utilization of sophorolipids as therapeutically active substances or cosmetic products, in particular for the treatment of the skin” (Institut Francais du Petrole, priority 1995, dated 1999)

Assays:
[1] = test system: macrophages (Interleukin-1 release); assay: IL-1 released by macrophages (Elisa sandwich test on culture supernatant); format: cell-based; conditions: 25 μg/ml
Excerpt: It is known, however, that several factors such as cytokines and growth factors play important roles in the process of wound healing. These factors include the epidermal growth factor (EGF), the fibroblastic growth factor (FGF), the platelet-derived growth factor (PDGF), and the beta transforming growth factor (beta-TGF). In addition to these factors, cytokines such as interleukin-l (IL-1), the tumor necrosis factor (TNF), and interleukin-6 (IL-6) also play important roles in the process of wound healing. These factors act by different methods, in combination with other materials, to induce proliferation of dermal and epidermal elements such as fibroblasts. […] Actually, IL-1 affects the differentiation, growth, and activity of many cellular types in the organism. Within the immune system, IL-1 acts as a second signal that is necessary to activate the IL-2 circuit by the activated T lymphocytes. It also potentiates the action of other cytokines. It contributes to the differentiation of B lymphocytes and to their production of immunoglobulins. It modifies vascular permeability by the release of mediators by the endothelial cells and induces the appearance at their surface of a factor that has a procoagulating activity. Owing to its proliferative effect on the fibroblasts, it intervenes in the repair phase.
To show the effect of activating macrophages by sophorolipids, an Elisa sandwich test was carried out on the supernatant of a culture medium that contained macrophages. […] A negative test was also used.

[2] = test system: keratinocyte culture (detachment of corneocytes); assay: Desquamating test, detachment of corneocytes in vitro; format: cell-based
Excerpt: Variation coefficient CV is obtained as follows: [formula]
Actually, the therapeutic applications incidentally involve cosmetic applications.

[3] = in vitro; conditions: keratinocyte culture
Protocol: A keratinocyte culture that was placed under conditions that promote the differentiation of cells was selected as a cellular model for the study. The actions of sophorolipids in acid form A, sophorolipids in lactone form B, and lactic acid on the detachment of corneocytes of the selected cellular model were tested in vitro in parallel. In each experiment, the mean difference T60-T0 (corneocytes/ml), as well as the proportion of detached corneocytes, expressed in percentage relative to the negative test (%/TN), were determined.
Cellular viability, measured with the Neutral Red test, is expressed relative to the negative test (%).

Compound | Concentrations IL-1 released by macrophages [1] | T60-T0 mean difference ([2]; 10^-3M, p less than 0.001) | activity at 1000 µM ([2]; Keratinocyte, 10^-3M, read-out: %/TN, proportion of detached corneocytes relative to the negative test) | EC (2-fold corneocyte release) ([2]; Keratinocyte, read-out: T200 (concentration which causes a release of corneocytes twice that observed with the negative test)) | viability at 1000 µM [3]
Lipopolysaccharides [reference compound] | 421.61 pg/mL |  |  |  | 
CC(O)C(=O)O (centres unmarked) [Lactic acid, lactic acid, reference compound] |  | 2500 corneocytes/ml | 214% | ~1000 µM | 99.5%
